The test system of experiment [1] is recombinant tau and amyloid β1-42 (Aβ1-42) aggregates. The following applies: higher affinity for the tau aggregates than Aβ1-42 aggregates; cited from earlier work.
Experiment [2] deals with NFT in sections of AD brain tissue. The following applies: in vitro autoradiography and fluorescent staining; cited from earlier work.
Experiment [3] has as its target T1, Q46 protein aggregates (Homo sapiens, UniProt P42858, INS38QQQQQQQQQQQQQQQQQQQQQQQQQ).
T1 construct: fused on or other part: GST at the N-terminus, cut off by thrombin before the test to start aggregation
Kind of experiment: Q46 Radioligand Binding Assay (RBA). The following applies: displacement of 10 nM [3H3]MK-3328 from 5 μM aggregated Q46 protein, 60 minutes at 37° C. On the procedure: Q46 Radioligand Binding Assay
For radioligand binding assays (RBA) GST-Q46 protein was generated based on a previous publication (Scherzinger et al. Cell, Vol. 90, 549-558, Aug. 8, 1997). For experiments 33 μM GST-Q46 was incubated with 150 μg/mL thrombin in assay buffer (150 mM NaCl, 50 mM Tris pH 8.0) and 2 mM CaCl2 for 16 hours at 37° C. Aggregated Q46 was pelleted by centrifugation for 5 minutes at 13,000 rpm in a bench top centrifuge and re-dissolved in the same volume of assay buffer. Test compounds were prepared by titration in DMSO at 11 concentrations from 33 μM to 1 nM. For the RBA, Q46 protein aggregates and test compounds were pre-incubated in assay buffer for 20 minutes at room temperature, in 140 μL/well in a 96-well plate (pp, round bottom). Then, ligand was added in 10 μL/well and incubated for 60 minutes at 37° C. Final assay concentrations were […] test compound, 5 μM Q46 protein (equivalent monomer concentration) and 10 nM ligand [^3H3]MK-3328 (Harrision et al., ACS Med. Chem. Lett., 2 (2011), pp 498-502). Samples were transferred onto GF/B filter plates and washed 2× with 200 μL PBS using a Filtermate Harvester. After drying filter plates for 1 hour at 37° C., the back of the plates was sealed with foil and 30 μl/well scintillation fluid (Packard MicroScint 40) was added, incubated for […] 15 minutes in the dark and counted in a TopCount reader. For analysis, replicate data from independent assay plates were normalized towards 0% and 100% inhibition using control wells of vehicle (0% inhibition) and 3 μM unlabelled MK-3328 (100% inhibition). IC50 values were determined with a sigmoidal inhibition model with four variables (top, bottom, slope, IC50) in a global fit using the normalized replicate data.

T1 sequence (P42858 with tags, fused parts or gaps with the stated changes): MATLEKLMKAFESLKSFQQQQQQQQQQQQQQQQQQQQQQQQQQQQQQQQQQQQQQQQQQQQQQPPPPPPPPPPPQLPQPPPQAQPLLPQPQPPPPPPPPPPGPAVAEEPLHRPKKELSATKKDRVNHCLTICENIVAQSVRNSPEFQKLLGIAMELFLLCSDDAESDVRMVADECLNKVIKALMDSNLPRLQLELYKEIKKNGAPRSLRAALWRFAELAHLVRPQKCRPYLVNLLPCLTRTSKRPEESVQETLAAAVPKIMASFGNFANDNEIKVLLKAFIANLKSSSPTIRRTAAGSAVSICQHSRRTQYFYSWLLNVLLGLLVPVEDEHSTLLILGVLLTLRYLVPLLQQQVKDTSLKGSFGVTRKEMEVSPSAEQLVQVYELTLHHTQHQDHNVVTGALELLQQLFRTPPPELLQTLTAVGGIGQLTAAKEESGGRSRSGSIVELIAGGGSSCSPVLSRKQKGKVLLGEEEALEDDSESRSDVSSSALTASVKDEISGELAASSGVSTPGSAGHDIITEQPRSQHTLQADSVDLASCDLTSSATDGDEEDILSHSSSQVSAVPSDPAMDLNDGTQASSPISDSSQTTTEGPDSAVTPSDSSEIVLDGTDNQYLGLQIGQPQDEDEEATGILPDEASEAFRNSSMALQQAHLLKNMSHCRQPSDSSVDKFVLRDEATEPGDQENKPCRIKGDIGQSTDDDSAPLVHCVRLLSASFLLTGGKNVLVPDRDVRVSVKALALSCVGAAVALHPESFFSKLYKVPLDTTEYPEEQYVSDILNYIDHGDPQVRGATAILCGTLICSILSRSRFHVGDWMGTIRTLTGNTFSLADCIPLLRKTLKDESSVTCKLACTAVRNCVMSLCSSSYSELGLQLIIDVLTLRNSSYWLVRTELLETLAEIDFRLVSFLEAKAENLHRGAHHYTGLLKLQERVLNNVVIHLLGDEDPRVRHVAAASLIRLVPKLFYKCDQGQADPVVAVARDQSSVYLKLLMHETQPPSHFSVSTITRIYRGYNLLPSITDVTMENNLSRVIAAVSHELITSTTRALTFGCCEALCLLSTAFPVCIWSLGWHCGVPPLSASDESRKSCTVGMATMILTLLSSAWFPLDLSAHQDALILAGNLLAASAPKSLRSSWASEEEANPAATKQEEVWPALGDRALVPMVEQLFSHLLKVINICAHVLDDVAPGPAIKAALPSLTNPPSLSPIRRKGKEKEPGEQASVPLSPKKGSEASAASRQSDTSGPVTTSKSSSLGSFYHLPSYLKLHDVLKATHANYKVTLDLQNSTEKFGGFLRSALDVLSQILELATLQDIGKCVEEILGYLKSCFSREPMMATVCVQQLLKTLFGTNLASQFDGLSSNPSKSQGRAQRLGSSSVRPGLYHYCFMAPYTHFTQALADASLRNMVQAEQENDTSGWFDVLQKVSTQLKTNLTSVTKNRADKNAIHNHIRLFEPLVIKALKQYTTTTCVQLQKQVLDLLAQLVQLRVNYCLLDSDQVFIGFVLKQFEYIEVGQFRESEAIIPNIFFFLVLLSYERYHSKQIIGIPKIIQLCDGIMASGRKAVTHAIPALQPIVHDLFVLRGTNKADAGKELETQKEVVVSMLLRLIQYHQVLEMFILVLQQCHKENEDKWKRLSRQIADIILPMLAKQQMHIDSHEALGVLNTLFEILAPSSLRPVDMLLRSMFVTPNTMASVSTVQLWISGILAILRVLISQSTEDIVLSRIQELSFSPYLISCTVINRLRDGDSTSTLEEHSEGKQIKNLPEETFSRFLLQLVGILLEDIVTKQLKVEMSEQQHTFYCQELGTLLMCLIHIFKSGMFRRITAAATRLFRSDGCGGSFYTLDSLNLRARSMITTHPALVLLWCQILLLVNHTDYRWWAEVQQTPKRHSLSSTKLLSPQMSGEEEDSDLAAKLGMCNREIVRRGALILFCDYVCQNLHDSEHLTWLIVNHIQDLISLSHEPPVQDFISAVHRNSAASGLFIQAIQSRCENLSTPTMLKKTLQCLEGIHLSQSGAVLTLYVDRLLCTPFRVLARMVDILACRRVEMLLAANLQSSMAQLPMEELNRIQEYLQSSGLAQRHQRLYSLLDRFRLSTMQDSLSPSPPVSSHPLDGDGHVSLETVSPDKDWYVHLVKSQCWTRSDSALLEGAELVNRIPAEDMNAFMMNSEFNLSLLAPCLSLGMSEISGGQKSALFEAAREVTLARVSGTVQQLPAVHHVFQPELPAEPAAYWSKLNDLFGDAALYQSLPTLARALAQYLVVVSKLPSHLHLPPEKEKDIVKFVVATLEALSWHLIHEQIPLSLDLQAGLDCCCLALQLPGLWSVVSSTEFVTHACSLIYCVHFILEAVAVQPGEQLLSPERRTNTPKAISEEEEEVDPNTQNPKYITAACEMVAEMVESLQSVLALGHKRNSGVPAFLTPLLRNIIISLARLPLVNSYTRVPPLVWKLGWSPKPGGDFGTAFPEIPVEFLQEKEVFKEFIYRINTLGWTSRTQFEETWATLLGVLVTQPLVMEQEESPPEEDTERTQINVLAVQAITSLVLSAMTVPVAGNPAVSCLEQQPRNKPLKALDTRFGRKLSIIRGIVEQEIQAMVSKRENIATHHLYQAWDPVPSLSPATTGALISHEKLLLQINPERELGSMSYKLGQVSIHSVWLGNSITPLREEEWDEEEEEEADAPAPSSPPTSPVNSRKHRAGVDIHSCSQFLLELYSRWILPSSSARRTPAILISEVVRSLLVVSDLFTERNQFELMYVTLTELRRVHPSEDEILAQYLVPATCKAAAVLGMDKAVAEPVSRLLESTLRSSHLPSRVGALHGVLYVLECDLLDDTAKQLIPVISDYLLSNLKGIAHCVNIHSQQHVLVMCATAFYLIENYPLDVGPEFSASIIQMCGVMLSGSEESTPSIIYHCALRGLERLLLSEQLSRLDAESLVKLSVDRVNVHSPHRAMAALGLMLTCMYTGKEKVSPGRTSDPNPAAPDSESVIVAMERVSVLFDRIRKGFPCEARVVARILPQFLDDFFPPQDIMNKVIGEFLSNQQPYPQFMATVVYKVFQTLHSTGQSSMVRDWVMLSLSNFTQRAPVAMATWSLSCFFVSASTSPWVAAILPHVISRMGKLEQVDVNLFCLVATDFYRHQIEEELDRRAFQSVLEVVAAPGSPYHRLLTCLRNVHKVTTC

For `CN(C)c1ccc(/C=C/c2nc3ccc(I)cc3[nH]2)cc1` [SBIM-3, 4-[(E)-2-(6-iodo-1H-benzimidazol-2-yl)ethenyl]-N,N-dimethylaniline], the “ratio of Kd values (tau aggregates vs Aβ1-42 aggregates)” value in experiment [1] is 2.73. In addition, the “binding to NFT in sections of AD brain tissue” value in experiment [2] is “bound NFT”.

On to `CNc1c(-c2ccc(NCc3ccc(OC)cn3)cc2)nc2cc(C#N)ccn12` [2-(4-{[(5-methoxypyridin-2-yl)methyl]amino}phenyl)-3-(methylamino)imidazo[1,2-a]pyridine-7-carbonitrile], for which the IC50 in experiment [3] was less than 100 nM.

On to `COCCNc1c(-c2cc3cc(OC)ccc3o2)nc2cc(C#N)ccn12` [2-(5-methoxy-1-benzofuran-2-yl)-3-[(2-methoxyethyl)amino]imidazo[1,2-a]pyridine-7-carbonitrile], for which the half-inhibitory concentration (IC50) in experiment [3] is less than 100 nM.

Regarding `CNc1c(-c2nc3ccc(OC)cc3s2)nc2cc(C#N)ccn12` [2-(6-methoxy-1,3-benzothiazol-2-yl)-3-(methylamino)imidazo[1,2-a]pyridine-7-carbonitrile], the IC50 in experiment [3] is less than 100 nM.

The molecule `CNc1c(-c2cc3cc(F)ccc3o2)nc2ccccn12` [2-(5-fluoro-1-benzofuran-2-yl)-N-methylimidazo[1,2-a]pyridin-3-amine] showed an IC50 in experiment [3] greater than 500 nM.

In experiment [3], `CNc1c(-c2cc3cc(OC)ccc3o2)nc2cc(C#C[Si](C)(C)C)ccn12` [2-(5-methoxy-1-benzofuran-2-yl)-N-methyl-7-[2-(trimethylsilyl)ethynyl]imidazo[1,2-a]pyridin-3-amine] yielded an IC50 of less than 100 nM.

The molecule `CNc1c(-c2ccc3c(c2)OCCO3)nc2cc(C#N)ccn12` [2-(2,3-dihydro-1,4-benzodioxin-6-yl)-3-(methylamino)imidazo[1,2-a]pyridine-7-carbonitrile] yielded an IC50 in experiment [3] of 100 to 500 nM.

With `CNc1c(-c2nc3cc(OC)ccc3n2C)nc2cc(C#N)ccn12` [2-(5-methoxy-1-methyl-1H-1,3-benzodiazol-2-yl)-3-(methylamino)imidazo[1,2-a]pyridine-7-carbonitrile], in experiment [3], the half-maximal inhibitory concentration (IC50) was less than 100 nM.

As for `CNc1c(-c2cc3cc(OC)ccc3o2)nc2cc(Br)ccn12` [7-bromo-2-(5-methoxy-1-benzofuran-2-yl)-N-methylimidazo[1,2-a]pyridin-3-amine], in experiment [3], the concentration for half-maximal inhibition (IC50) is less than 100 nM.

In the case of `COc1ccc2oc(-c3nc4cc(C#N)ccn4c3N(C)C)cc2c1` [3-(dimethylamino)-2-(5-methoxy-1-benzofuran-2-yl)imidazo[1,2-a]pyridine-7-carbonitrile], the IC50 in experiment [3] is 100 to 500 nM.

The molecule `CNc1c(-c2cc3cc(Br)ccc3o2)nc2cc(C#N)ccn12` [2-(5-bromo-1-benzofuran-2-yl)-3-(methylamino)imidazo[1,2-a]pyridine-7-carbonitrile] gave an IC50 in experiment [3] of less than 100 nM.

Molecule `CNc1c(-c2cc3cc(O)ccc3o2)nc2ccc(F)cn12` [2-[6-fluoro-3-(methylamino)imidazo[1,2-a]pyridin-2-yl]-1-benzofuran-5-ol] came in with an IC50 in experiment [3] of 100 to 500 nM.

As for `CNc1c(-c2cc3cc(OC)ccc3o2)nc2ccccn12` [2-(5-methoxy-1-benzofuran-2-yl)-N-methylimidazo[1,2-a]pyridin-3-amine], the IC50 in experiment [3] fell in the range of 100 to 500 nM.

In experiment [3], `C#Cc1ccn2c(NC)c(-c3cc4cc(OC)ccc4o3)nc2c1` [7-ethynyl-2-(5-methoxy-1-benzofuran-2-yl)-N-methylimidazo[1,2-a]pyridin-3-amine] registered an IC50 of less than 100 nM.

For `CNc1c(-c2nc3cc(OC)ccc3[nH]2)nc2cc(C#N)ccn12` [2-(5-methoxy-1H-1,3-benzodiazol-2-yl)-3-(methylamino)imidazo[1,2-a]pyridine-7-carbonitrile], the IC50 in experiment [3] was less than 100 nM.

Turning to `CNc1c(-c2cc3c(o2)CCN(C(=O)OC(C)(C)C)C3)nc2cc(C#N)ccn12` [tert-butyl 2-[7-cyano-3-(methylamino)imidazo[1,2-a]pyridin-2-yl]-4H,5H,6H,7H-furo[3,2-c]pyridine-5-carboxylate], in experiment [3], the half-inhibitory concentration (IC50) was in the range of 100 to 500 nM.

In experiment [3], `COCc1c(-c2cc3cc(OC)ccc3o2)nc2cc(C#N)ccn12` [2-(5-methoxy-1-benzofuran-2-yl)-3-(methoxymethyl)imidazo[1,2-a]pyridine-7-carbonitrile] displayed an IC50 of less than 100 nM.

In the case of `CNc1c(-c2cc3cc(OC)ccc3o2)nc2cc(F)ccn12` [7-fluoro-2-(5-methoxy-1-benzofuran-2-yl)-N-methylimidazo[1,2-a]pyridin-3-amine], the IC50 in experiment [3] was less than 100 nM.

The molecule `CNc1c(-c2cc3cc(OC)ccc3o2)nc2cc(Cl)ccn12` [7-chloro-2-(5-methoxy-1-benzofuran-2-yl)-N-methylimidazo[1,2-a]pyridin-3-amine] showed an IC50 in experiment [3] of less than 100 nM.

In experiment [3], `COc1ccc2oc(-c3nc4cc(C#N)ccn4c3N)cc2c1` [3-amino-2-(5-methoxy-1-benzofuran-2-yl)imidazo[1,2-a]pyridine-7-carbonitrile] showed an IC50 of less than 100 nM.

As to `CNc1c(-c2cc3cc(OC)ccc3o2)nc2ccc(C#N)cn12` [2-(5-methoxy-1-benzofuran-2-yl)-3-(methylamino)imidazo[1,2-a]pyridine-6-carbonitrile], in experiment [3], the half-inhibitory concentration (IC50) is less than 100 nM.

The molecule `CNc1c(-c2ccc(OC)cc2)nc2cc(C#N)ccn12` [2-(4-methoxyphenyl)-3-(methylamino)imidazo[1,2-a]pyridine-7-carbonitrile] returned an IC50 in experiment [3] of less than 100 nM.

`OCCNc1c(-c2cc3cc(O)ccc3o2)nc2ccccn12` [2-{3-[(2-hydroxyethyl)amino]imidazo[1,2-a]pyridin-2-yl}-1-benzofuran-5-ol]: the half-inhibitory concentration (IC50) in experiment [3] was 100 to 500 nM.

One may read the IC50 as the midpoint of a concentration-inhibition curve. High values mean a need for much substance, low ones inhibition by little substance.

Source of the values: US11851446B2, “Probes for imaging Huntingtin protein” (CHDI Foundation, Inc., priority 2014, dated 2023).
